Tests used:
human 20S proteasome [1] = molecular target: T1, human 20S proteasome (Homo sapiens, UniProt P28074); assay: 20S Proteasome Assay; type: biochemical; details: Ac-WLA-AMC substrate 15 μM, human PA28 activator 12 nM, human 20S proteasome 0.25 nM, 37° C., pH7.4
T1 construct: purchased Boston Biochem

human 20S proteasome [2] = molecular target: human 20S proteasome (Homo sapiens, UniProt P28072+P28074+Q99436); assay: Proteasome Inhibition Kinetics (enzyme progress curves); type: biochemical; details: human 20S proteasome 0.25 nM activated with 0.01% SDS, 37° C.; half-life determined from koff; read-out: dissociation half-life t1/2
Description: Enzyme kinetic parameters including dissociation constants and half lives were determined by analysis of enzyme progress curves as follows:
Proteasome inactivation measurements were obtained by monitoring individual progress curves for the hydrolysis of the site-specific fluorogenic 7-amido-4-methylcoumarin (AMC)-labeled peptide substrates (β5, Suc-LLVY-AMC; β2, Z-VLR-AMC, and β1, Z-LLE-AMC) at different inhibitor concentrations. Cleavage of the fluorogenic peptide was continuously monitored as a change in the fluorescence emission at 460 nm (λex=360 nm) and plotted as a function of time. All assays were performed in cuvettes with 2 mL of 50 mM HEPES (pH 7.5), 0.5 mM EDTA, at 37±0.2° C., and with continuous stirring. The concentrations of substrates varied from 10 to 25 μM (<½ KM). The concentration of human 20S proteasome was 0.25 nM and was activated with 0.01% SDS. The rate constant, kobs, describing the conversion from the initial velocity to the steady state velocity, were estimated by nonlinear least-squares regression analysis of the individual progress curves using the equation for time-dependent or slow-binding inhibition:
[formula] where F is fluorescence, vi and vs are the initial and steady state velocities of the reaction in the presence of inhibitor, and t is time. A plot of kobs as a function of [I] was made to obtain kon from the slope of the linear fit of the data. The apparent dissociation constant, K^appii, was determined by nonlinear least-fit of the fractional velocity, vs/vo, as a function of [I], were vs is the steady state value obtained from the time-dependent or slow-binding equation and vo is the initial velocity in the absence of inhibitor: […]
The dissociation constant Ki, was calculated from the apparent Ki using the following expression: […]
The off rate, koff, was mathematically calculated from the above determined parameters using the following relationship:
The half-life was then determined from the koff value using the following relationship: […]

Row | Structure (SMILES) | IC50 (human 20S proteasome [1]) | residence time (human 20S proteasome [2])
1 | O=C(N[C@@H](CC1CCC1)B(O)O)[C@H](Cc1ccccc1)NS(=O)(=O)c1ccc2ccccc2c1 [Compound 1, [(1R)-2-cyclobutyl-1-({(2S)-2-[(2-naphthylsulfonyl)amino]-3-phenylpropanoyl}amino)ethyl]boronic acid] | < 50 nM | < 10 min
2 | O=C(N[C@@H](Cc1ccccc1)C(=O)N[C@@H](CC1CCC1)B(O)O)c1cccnc1Oc1ccccc1 [Compound 2, {(1R)-2-cyclobutyl-1-[((2S)-2-{[(2-phenoxypyridin-3-yl)carbonyl]amino}-3-phenylpropanoyl)amino]ethyl}boronic acid] | < 50 nM | 10 to 60 min
3 | O=C(N[C@@H](Cc1ccccc1)C(=O)N[C@@H](CC1CCC1)B(O)O)c1cc(Cl)ccc1Cl [Compound 6, [(1R)-2-cyclobutyl-1-({(2S)-2-[(2,5-dichlorobenzoyl)amino]-3-phenylpropanoyl}amino)ethyl]boronic acid] | < 50 nM | 10 to 60 min
4 | O=C(N[C@@H](Cc1ccccc1)C(=O)N[C@@H](CC1CCC1)B(O)O)c1cnccn1 [Compound 17, [(1R)-2-cyclobutyl-1-({(2S)-3-phenyl-2-[(pyrazin-2-ylcarbonyl)amino]propanoyl}amino)ethyl]boronic acid] | < 50 nM | 10 to 60 min
5 | CN1CCOc2ccc(S(=O)(=O)N[C@@H](Cc3ccccc3)C(=O)N[C@@H](CC3CCC3)B(O)O)cc21 [Compound 20, {(1R)-2-cyclobutyl-1-[((2S)-2-{[(4-methyl-3,4-dihydro-2H-1,4-benzoxazin-6-yl)sulfonyl]amino}-3-phenylpropanoyl)amino]ethyl}boronic acid] | < 50 nM | < 10 min
6 | O=C(N[C@@H](CC1CCC1)B(O)O)[C@H](Cc1ccccc1)NS(=O)(=O)c1cc(Cl)ccc1Cl [Compound 35, {(1R)-2-cyclobutyl-1-[((2S)-2-{[(2,5-dichlorophenyl)sulfonyl]amino}-3-phenylpropanoyl)amino]ethyl}boronic acid] | < 50 nM | < 10 min
7 | O=C(N[C@@H](CC1CCC1)B(O)O)[C@H](Cc1ccccc1)NS(=O)(=O)c1ccc(-c2cnco2)cc1 [Compound 36, ((1R)-2-cyclobutyl-1-{[(2S)-2-({[4-(1,3-oxazol-5-yl)phenyl]sulfonyl}amino)-3-phenylpropanoyl]amino}ethyl)boronic acid] | < 50 nM | < 10 min
8 | O=C(N[C@@H](Cc1ccccc1)C(=O)N[C@@H](CC1CCC1)B(O)O)c1ccc(Oc2ccccc2)nc1 [Compound 39, {(1R)-2-cyclobutyl-1-[((2S)-2-{[(6-phenoxypyridin-3-yl)carbonyl]amino}-3-phenylpropanoyl)amino]ethyl}boronic acid] | < 50 nM | –
9 | CN1C(=O)Cc2cc(S(=O)(=O)N[C@@H](Cc3ccccc3)C(=O)N[C@@H](CC3CCC3)B(O)O)ccc21 [Compound 40, {(1R)-2-cyclobutyl-1-[((2S)-2-{[(1-methyl-2-oxo-2,3-dihydro-1H-indol-5-yl)sulfonyl]amino}-3-phenylpropanoyl)amino]ethyl}boronic acid] | < 50 nM | –

Further lines, results first:

Row | IC50 (human 20S proteasome [1]) | residence time (human 20S proteasome [2]) | Structure (SMILES)
10 | < 50 nM | < 10 min | O=C(N[C@@H](CC1CCC1)B(O)O)[C@H](Cc1ccccc1)NS(=O)(=O)c1ccc(Oc2ccccn2)cc1 [Compound 41, ((1R)-2-cyclobutyl-1-{[(2S)-3-phenyl-2-({[4-(pyridin-2-yloxy)phenyl]sulfonyl}amino)propanoyl]amino}ethyl)boronic acid]
11 | 50 to 150 nM | – | C[C@H](O)[C@H](NS(=O)(=O)c1ccc(Oc2ccccc2)nc1)C(=O)N[C@@H](CC1CCC1)B(O)O [Compound 42, {(1R)-2-cyclobutyl-1-[((2S)-3-hydroxy-2-{[(6-phenoxypyridin-3-yl)sulfonyl]amino}butanoyl)amino]ethyl}boronic acid]
12 | < 50 nM | < 10 min | O=C(N[C@@H](CC1CCC1)B(O)O)[C@H](Cc1ccccc1)NS(=O)(=O)c1ccc(Oc2ccncc2)cc1 [Compound 43, ((1R)-2-cyclobutyl-1-{[(2S)-3-phenyl-2-({[4-(pyridin-4-yloxy)phenyl]sulfonyl}amino)propanoyl]amino}ethyl)boronic acid]
13 | < 50 nM | – | Cc1nc(-c2cccc(S(=O)(=O)N[C@@H](Cc3ccccc3)C(=O)N[C@@H](CC3CCC3)B(O)O)c2)cs1 [Compound 44, ((1R)-2-cyclobutyl-1-{[(2S)-2-({[3-(2-methyl-1,3-thiazol-4-yl)phenyl]sulfonyl}amino)-3-phenylpropanoyl]amino}ethyl)boronic acid]
14 | < 50 nM | < 10 min | O=C(N[C@@H](CC1CCC1)B(O)O)[C@H](Cc1ccccc1)NS(=O)(=O)c1ccc(Oc2cccnc2)cc1 [Compound 45, ((1R)-2-cyclobutyl-1-{[(2S)-3-phenyl-2-({[4-(pyridin-3-yl-oxy)phenyl]sulfonyl}amino)propanoyl]amino}ethyl)boronic acid]
15 | 50 to 150 nM | – | C[C@H](O)[C@H](NS(=O)(=O)c1ccc2c(c1)N(C)CCO2)C(=O)N[C@@H](CC1CCC1)B(O)O [Compound 46, {(1R)-2-cyclobutyl-1-[((2S)-3-hydroxy-2-{[(4-methyl-3,4-dihydro-2H-1,4-benzoxazin-6-yl)sulfonyl]amino}butanoyl)amino]ethyl}boronic acid]
16 | 50 to 150 nM | – | O=C(N[C@@H](CC1CCC1)B(O)O)[C@H](Cc1ccccc1)NS(=O)(=O)c1cccc2cnccc12 [Compound 47, [(1R)-2-cyclobutyl-1-({(2S)-2-[(isoquinolin-5-ylsulfonyl)amino]-3-phenylpropanoyl}amino)ethyl]boronic acid]
17 | < 50 nM | – | O=C(N[C@@H](CC1CCC1)B(O)O)[C@H](Cc1ccccc1)NS(=O)(=O)c1ccc2ncsc2c1 [Compound 48, [(1R)-1-({(2S)-2-[(1,3-benzothiazol-6-ylsulfonyl)amino]-3-phenylpropanoyl}-amino)-2-cyclobutylethyl]boronic acid]

From patent publication US9771381B2, “Derivatives of 1-amino-2-cyclobutylethylboronic acid” (Millennium Pharmaceuticals, Inc., priority 2008, dated 2017)
